Columns and labels:
Type in all cases: in vivo
[1] = tested on: skin, volar forearm test sites; test: Comparative irritation panel study vs glycerine based emollient, TEWL by POST protocol (Example 3); settings: FIG. 8; 10 gsm polypropylene nonwoven; 0.6% Cirrasol Care + 12% additive; 24 hours under occlusion patch; 16 panellists
Excerpt: 10 gsm polypropylene nonwoven textile was cut into 11 mm diameter circles. Each circle was individually treated with water based dispersions then dried to achieve a treat rate of a) 0.6% low-irritation hygiene finish (CirrasolTM Care ex. Croda, Sample A), or b) 0.6% low irritation hygiene finish and 12% […]-10 adipate (a diester skin care additive in accordance with the present invention, Sample B), or c) 0.6% low-irritation hygiene finish and 12% of a glycerine based emollient (Sample C). Treat rates are expressed as percentage by weight of textile. An irritation panel study was carried out, the study included 16 individual panellists. […] For each panellist three test sites on each volar forearm were identified and marked (i.e. 6 test sites in total per panellist were assessed). An initial trans-epidermal water loss (TEWL) reading was taken using an AquaFlux AF200 Instrument to ensure no initial skin irritation at each of the 6 test sites. […] TEWL was measured using the POST (post occlusion stress test) protocol. Under this test the occlusion patch is removed, along with the textile sample, the test site is then wiped of any surface moisture, and then TEWL readings are taken immediately using the same AquaFlux AF200 Instrument. TEWL is measured until the water loss rate peaks, and for the following 5 minutes. Results are measured in total water loss for 5 minutes after water loss rate peaks. […]

[2] = tested on: skin, volar forearm test sites; test: Comparative irritation panel study vs ester based emollient, TEWL by POST protocol (Example 4); settings: FIG. 9; 10 gsm polypropylene nonwoven; 0.6% Cirrasol Care + 12% additive; 24 hours under occlusion patch; 16 panellists
Excerpt: 10 gsm polypropylene nonwoven textile was cut into 11 mm diameter circles. Each circle was individually treated with water based dispersions then dried to achieve a treat rate of a) 0.6% low-irritation hygiene finish (Cirrasol™ Care ex. Croda, Sample A) based on weight of textile, or b) 0.6% low-irritation hygiene finish and 12% di-PPG-2 myreth-10 adipate (a diester skin care additive in accordance with the present invention, Sample B), or c) 0.6% low-irritation hygiene finish and 12% of a saturated tri-ester based emollient (Crodamol™ GTCC ex. Croda, Sample C). Treat rates are expressed as percentage by weight of textile. […]
(§1) For each panellist three test sites on each volar forearm were identified and marked (i.e. 6 test sites in total per panellist were assessed). An initial trans-epidermal water loss (TEWL) reading was taken using an AquaFlux AF200 Instrument to ensure no initial skin irritation at each of the 6 test sites. […]
(§2) After 24 hours panellists were again acclimatised to the laboratory environment for 20 mins at 20° C. and 45% relative humidity. TEWL was measured using the POST (post occlusion stress test) protocol. Under this test the occlusion patch is removed, along with the textile sample, the test site is then wiped of any surface moisture, and then TEWL readings are taken immediately using the same AquaFlux AF200 Instrument. […]

[3] = tested on: skin, volar forearm test sites; test: Irritation panel study, TEWL by POST (post occlusion stress test) protocol, SLS irritant model (Example 1); settings: FIG. 1; 10 gsm polypropylene nonwoven with 1% SLS + 2% diester vs 1% SLS alone (Sample A); 24 hours under occlusion patch; 9 panellists
Excerpt: 10 gsm polypropylene nonwoven textile was cut into 11 mm diameter circles. Each circle was individually treated with water based dispersions then dried to achieve either a treat rate of a) 1% sodium lauryl sulphate (SLS, Sample A) based on weight of textile, or b) 1% SLS and 2% di-PPG-2 myreth-10 adipate (a diester skin care additive in accordance with the present invention, Sample B) based on percentage by weight of textile. SLS is a known skin irritant, and so provides a good model for assessing skin irritancy in test subjects/panellists.
An irritation panel study was carried out, the study included 9 individual panellists. […]
as §1, §2

di-PPG-2 myreth-10 adipate [diester skin care additive]
skin irritation from nonwoven in contact with skin (combined average TEWL) compared to low-irritancy hygiene finish alone [1]: reduced skin irritation | skin irritation from nonwoven in contact with skin (combined average TEWL) compared to low-irritancy hygiene finish alone [2]: reduced skin irritation | decrease in skin water loss (combined average TEWL of all panellists) [3]: 31%
